Assay results as given in ChEMBL document CHEMBL2034964, “Investigation of the binding pocket of human hematopoietic prostaglandin (PG) D2 synthase (hH-PGDS): a tale of two waters” (Bioorg Med Chem Lett, 2012).

Experiments:
[1] = (§1) Metabolic stability in human liver microsomes assessed as compound remaining after 30 mins; assay type: ADME, Microsome; conditions: liver microsomes, read-out: Stability
[2] = molecular target: T1, Hematopoietic prostaglandin D synthase (Homo sapiens, UniProt O60760); test: Inhibition of human recombinant HPGDS using PGH2 as substrate assessed as production of PGD2 preincubated for 10 mins prior substrate addition measured after 42 secs by TBA-based fluorescence assay
T1 sequence (O60760 whole entry): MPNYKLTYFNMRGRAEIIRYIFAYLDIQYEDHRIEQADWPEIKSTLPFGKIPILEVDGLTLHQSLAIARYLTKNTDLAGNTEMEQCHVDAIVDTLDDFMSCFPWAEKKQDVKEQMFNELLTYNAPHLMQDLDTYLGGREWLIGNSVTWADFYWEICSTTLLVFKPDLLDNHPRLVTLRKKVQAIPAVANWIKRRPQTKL

Liver microsomes [3] = test: Half life in human liver microsomes; assay type: ADME, Microsome
[4] = molecular target: ERG (KCNH2 potassium channel) (Homo sapiens, UniProt Q12809); test: Displacement of dofetilide from ERG at 10 uM; conditions: probe dofetilide
Sequence of ERG (KCNH2 potassium channel) (Q12809 whole entry): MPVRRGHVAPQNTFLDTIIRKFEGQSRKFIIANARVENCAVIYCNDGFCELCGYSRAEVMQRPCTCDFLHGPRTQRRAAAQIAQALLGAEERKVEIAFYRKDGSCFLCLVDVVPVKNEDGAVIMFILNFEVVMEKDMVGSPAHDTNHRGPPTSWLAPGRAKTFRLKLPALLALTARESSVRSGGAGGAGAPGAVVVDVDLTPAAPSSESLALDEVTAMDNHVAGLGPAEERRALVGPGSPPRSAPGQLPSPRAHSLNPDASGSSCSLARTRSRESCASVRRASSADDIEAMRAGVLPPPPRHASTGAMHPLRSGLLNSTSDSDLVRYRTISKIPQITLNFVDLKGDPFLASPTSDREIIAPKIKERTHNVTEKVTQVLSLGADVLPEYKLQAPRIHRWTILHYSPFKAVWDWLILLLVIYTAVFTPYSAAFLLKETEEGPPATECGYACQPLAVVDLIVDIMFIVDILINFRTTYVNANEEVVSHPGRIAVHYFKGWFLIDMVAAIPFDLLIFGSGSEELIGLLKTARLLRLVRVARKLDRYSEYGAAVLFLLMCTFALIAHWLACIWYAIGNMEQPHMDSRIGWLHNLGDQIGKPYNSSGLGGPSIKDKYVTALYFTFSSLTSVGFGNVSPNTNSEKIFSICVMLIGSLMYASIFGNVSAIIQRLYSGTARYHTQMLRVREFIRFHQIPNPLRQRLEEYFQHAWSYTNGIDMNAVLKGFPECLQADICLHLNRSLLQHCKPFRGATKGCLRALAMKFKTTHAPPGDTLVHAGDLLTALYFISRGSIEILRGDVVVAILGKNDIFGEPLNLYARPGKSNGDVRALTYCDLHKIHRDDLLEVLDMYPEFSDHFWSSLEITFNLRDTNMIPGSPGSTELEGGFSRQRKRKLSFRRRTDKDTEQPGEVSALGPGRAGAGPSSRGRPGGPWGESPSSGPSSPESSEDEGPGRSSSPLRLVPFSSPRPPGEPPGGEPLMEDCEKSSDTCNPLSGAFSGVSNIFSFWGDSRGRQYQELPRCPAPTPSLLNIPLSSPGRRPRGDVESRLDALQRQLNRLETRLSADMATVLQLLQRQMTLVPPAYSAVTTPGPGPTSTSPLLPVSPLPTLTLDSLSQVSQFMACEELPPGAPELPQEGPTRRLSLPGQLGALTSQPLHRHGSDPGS

Liver microsomes [5] = test: as §1; assay type: ADME, Microsome; conditions: microsomes, 0.5 h
[6] = molecular target: T1, Hematopoietic prostaglandin D synthase; test: Inhibition of HPGDS

Compound	remaining at 0.5 h [1] [%]	IC50 [6] [nM]	other results
Cc1cc2ccccc2c(-c2ccc(C(=O)NCCN3CCOCC3)cc2)n1	76	–	–
O=C(NCCN1CCOCC1)c1ccc(-c2c(O)ccc3ccccc23)cc1	94	–	IC50 [2]: 662 nM
O=C(NCCN1CCOCC1)c1ccc(-c2nccc3ccccc23)cc1	–	–	t1/2 (Liver microsomes [3]): 1 h; inhibition at 10 µM [4]: 3%; Stability (Liver microsomes [5]): 90%
O=C(NCCN1CCOCC1)c1ccc(-c2ccccn2)cc1	20	–	IC50 [2]: 274 nM
Cc1nc(-c2ccccc2)sc1C(=O)Nc1ccc(S(N)(=O)=O)cc1	–	< 1	–
COc1ccccc1N1CCN(C(=O)c2ccc[nH]2)CC1	–	6900	–
O=C(Nc1ccc(N2CCN(C(=O)N3CCOCC3)CC2)cc1)c1cnc(Oc2ccccc2)nc1	–	280	–
O=C(NC1CCN(CC(F)(F)F)CC1)c1ccc(-c2ccccc2)nc1	–	0.2	–
